In patent publication US12358954B2, “Capsid-modified rAAV vector compositions and methods therefor” (priority 2012, dated 2025):

Assays:
[1] = system: primary human dendritic cells; assay: AAV-EGFP transduction of primary human dendritic cells with NF-κB modulators (flow cytometry); type: cell-based; settings: scAAV-transduced DCs treated with cytokines; Bay11 row: cytokines plus Bay11
Protocol: (§1) Recombinant AAV Vector Transduction Assays in Vitro. Optimal concentration of NF-κB-modulating compounds was determined by a cell viability assay with tenfold-dilutions from the IC50 or were used as described previously (Wu and Miyamoto, 2008; Kumar et al., 2008). VP16 or Bay11 (10 or 5 μM, final concentration), and PDTC (50 or 25 μM final concentration) were used either alone or in activator/inhibitor combinations. For transduction experiments, approximately 1×10^5 HeLa cells were either pre-treated with these compounds 24 hrs prior to vector infection. Cells were transduced with 500 or 2,000 vector genomes (vgs) per cell of recombinant WT-AAV or TM-AAV vectors encoding the EGFP transgene as described previously (Markusic et al., 2010). After 7 days of culture, primary human dendritic cells were transduced with AAV vectors at 2000 vgs/cell and incubated for 48 hrs. Transgene expression was assessed as total area of green fluorescence (pixel^2) per visual field (mean±SD), or by flow cytometry. Analysis of variance (ANOVA) was used to compare between test results and the control and they were determined to be statistically significant.
Cells, Antibodies and Chemicals. […]

HeLa cells = assay: AAV-EGFP transduction of HeLa cells in the presence of NF-κB modulators; type: cell-based, human
Protocol: as §1

anti-AAV2 IgG2a = assay: Anti-AAV2 IgG2a levels in peripheral blood; type: in vivo, mice; settings: day 10
Protocol: Anti-AAV2 IgG2a levels were determined in peripheral blood from mice at day 10 following injections with scAAV vectors, with and without prior administration of Bay11 (n=4 each);
Inhibition of NF-κB Activation Leads to Suppression of Pro-Inflammatory Cytokine Production Prior to AAV Vector-Mediated Gene Transfer in Mice in Vivo. In in vivo studies, a single dose of Bay11 at 20 mg/kg body weight was administered intra-peritoneally (i.p.) 12 hrs prior to vector administration in C57BL/6 mice. Transcript levels from liver homogenates of innate immune mediators (FIG. 3A) or for activation of NF-κB (FIG. 3B) genes were measured from Bay11- and vector-injected groups and compared with sham-injected mice. […] The up-regulation of type I interferon expression by both wild-type (WT-AAV) and TM-AAV vectors was unaffected by Bay11 (FIG. 8A, FIG. 8B, FIG. 8C, FIG. 8D, FIG. 8E, and FIG. 8F).

Q: How did the “transgene expression in DCs” value [1] turn out when `Cc1ccc(S(=O)(=O)/C=C/C#N)cc1` [Bay11, Bay11-7082] was run?
A: ~12%

Q: And the “AAV vector-mediated EGFP expression, fold augmentation” value (HeLa cells; HeLa, scAAV-EGFP)?
A: totally ablated

Q: What about the “VP16-mediated augmented transgene expression” value (HeLa cells; activator/inhibitor combination) of the same compound?
A: completely ablated

Q: What about the anti-AAV2 antibody response (anti-AAV2 IgG2a) of the same compound?
A: significantly reduced
